Test results published in publication PMC2662044 (European journal of medicinal chemistry, 2008).
pIC50: −log10 of the molar value. “Also recorded” adds a separate entry of the source. Read-outs that look alike come from different tables or passages of the source.

Assays:
[1] = molecular target: T1, Kv1.5 (Homo sapiens, UniProt P22460); settings: Table 1, cited from earlier work; for pIC50: read-out: IC50 value Kv1.5
[2] = molecular target: T2, Kv1.3 (Mus musculus, UniProt P16390); type: cell-based; settings: for pIC50: IC50 Kv1.3, text; for Effect on Kv1.3: concentration of 10 µM where stated
T2 sequence (P16390 whole entry): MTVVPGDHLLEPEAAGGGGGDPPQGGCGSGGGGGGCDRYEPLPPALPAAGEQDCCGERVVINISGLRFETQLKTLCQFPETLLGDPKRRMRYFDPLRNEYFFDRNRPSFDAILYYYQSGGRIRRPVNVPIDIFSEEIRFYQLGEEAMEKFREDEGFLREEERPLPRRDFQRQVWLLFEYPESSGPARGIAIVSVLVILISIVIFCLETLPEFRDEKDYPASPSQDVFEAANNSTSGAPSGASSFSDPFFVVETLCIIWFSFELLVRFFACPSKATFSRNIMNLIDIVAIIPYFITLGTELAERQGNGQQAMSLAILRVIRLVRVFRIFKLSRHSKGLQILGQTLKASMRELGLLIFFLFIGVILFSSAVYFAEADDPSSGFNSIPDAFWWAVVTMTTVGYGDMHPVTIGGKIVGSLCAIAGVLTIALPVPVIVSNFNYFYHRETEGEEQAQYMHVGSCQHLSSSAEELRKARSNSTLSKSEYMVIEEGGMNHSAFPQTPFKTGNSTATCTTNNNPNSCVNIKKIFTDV

[3] = molecular target: T1, Kv1.5; test: Kv1.5 inhibition, whole-cell patch-clamp, currents recorded from MEL-C88 cells; type: cell-based; settings: for Selectivity IC50 (Kv1.5)/IC50 (Kv1.3): Table 1
[4] = HPLC studies on stability in DMSO stock and Ringer solution; type: physicochemical; settings: data not shown
[5] = administration for 28 days or 6 months, rats or rhesus macaques; cited from earlier work
[6] = cited from earlier work
[7] = system: oxazolone-induced allergic contact dermatitis; settings: rat models; cited from earlier work
[8] = cited from earlier work; remark: listed apart in the source
[9] = system: type-1 diabetes; settings: rat models; cited from earlier work
[10] = molecular target: T2, Kv1.3; settings: read-out: IC50 Kv1.3; cited from earlier work

T1 sequence (P22460 whole entry): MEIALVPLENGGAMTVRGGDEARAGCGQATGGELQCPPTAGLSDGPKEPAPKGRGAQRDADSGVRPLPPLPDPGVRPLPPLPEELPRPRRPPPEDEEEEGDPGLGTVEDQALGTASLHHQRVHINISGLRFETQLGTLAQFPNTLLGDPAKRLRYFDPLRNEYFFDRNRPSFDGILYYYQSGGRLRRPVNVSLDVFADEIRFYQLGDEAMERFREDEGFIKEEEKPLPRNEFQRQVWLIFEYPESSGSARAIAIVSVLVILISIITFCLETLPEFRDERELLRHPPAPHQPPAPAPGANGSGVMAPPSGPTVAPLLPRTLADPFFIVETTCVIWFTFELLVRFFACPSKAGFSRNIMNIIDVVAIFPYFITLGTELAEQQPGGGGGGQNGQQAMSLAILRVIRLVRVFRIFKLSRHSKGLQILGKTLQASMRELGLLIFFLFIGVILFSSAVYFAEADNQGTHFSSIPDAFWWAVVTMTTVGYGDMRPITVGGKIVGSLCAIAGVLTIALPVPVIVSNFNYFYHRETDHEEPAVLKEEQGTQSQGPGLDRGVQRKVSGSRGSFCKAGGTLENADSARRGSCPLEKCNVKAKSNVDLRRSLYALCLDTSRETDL

In the case of `COc1c2ccoc2cc2oc(=O)ccc12` [Compound 5-MOP, 5-methoxypsoralen], the “Selectivity IC50 (Kv1.5)/IC50 (Kv1.3)” value [1] is listed as 1.75 and the pIC50 [1] is listed as 3.75.

For `c1ccc(OCCCCOc2ccccc2)cc1` [Compound 15, 1,1'[1,4-Butanediyl(oxy)]bis-benzene], the pIC50 [2] was < 5.00.

In the case of `c1ccc(OCCCCOc2cccc3ccccc23)cc1` [Compound 16, 1-(4-Phenoxybutoxy)naphthalene], the pIC50 [2] was < 5.00.

For `c1ccc(OCCCCOc2ccnc3ccccc23)cc1` [Compound 17, 4-(4-Phenoxybutoxy)quinoline], the “Effect on Kv1.3” value [2] was “ineffective”, the pIC50 [3] was 5.46 and the “Selectivity (IC50 for Kv1.5 divided by the IC50 for Kv1.3)” value [3] was 0.34 fold. The “Times more potent on Kv1.5 than on Kv1.3” value [3] was “roughly 3 times” and the “Selectivity IC50 (Kv1.5)/IC50 (Kv1.3)” value [3] was < 0.35.

With `c1ccc(OCCCCOc2ncnc3ccccc23)cc1` [Compound 19, 4-(4-Phenoxybutoxy)quinazoline] the “Effect on Kv1.3” value [2] was “ineffective” and the pIC50 [3] was ~4.60.

In the case of `O=c1cc(OCCCCOc2ccccc2)c2ccccc2o1` [Compound 21, 4-(4-Phenoxybutoxy)-2H-[1]benzopyran-2-one], the pIC50 [3] was 5.82 and the “Selectivity IC50 (Kv1.5)/IC50 (Kv1.3)” value [3] was 1.69.

For `COc1c2occc2c(OC)c2c(OCCCCOc3ccccc3)cc(=O)oc12` [Compound 23, 5,8-Dimethoxy-4-(4-phenoxybutoxy)psoralen], the pIC50 [3] was 6.07 and the “Selectivity IC50 (Kv1.5)/IC50 (Kv1.3)” value [3] was 1.89.

For `O=C1c2ccccc2C(=O)c2c(OCCCCOc3ccccc3)cccc21` [Compound 25, 1-(4-Phenoxybutoxy)anthraquinone], the pIC50 [3] was 5.00 and the “Selectivity IC50 (Kv1.5)/IC50 (Kv1.3)” value [3] was 1.43.

With `c1ccc(OCCCCOc2cc3ccccc3c3ccccc23)cc1` [Compound 26, 9-(4-Phenoxybutoxy)phenanthrene] the pIC50 [2] was < 5.00.

In the case of `COc1cccc2c(=O)c3ccccc3n(CCCCOc3ccccc3)c12` [Compound 28, 9,10-Dihydro-4-methoxy-N-(4-phenoxybutyl)acridin-9-one], the pIC50 [3] was 6.35 and the “Selectivity IC50 (Kv1.5)/IC50 (Kv1.3)” value [3] was 2.73.

In the case of `COc1cc2nc3occc3c(OCCCCOc3ccccc3)c2cc1OC` [Compound 34, 6,7-Dimethoxy-4-(4-phenoxybutoxy)furo[2,3-b]quinoline], the “Kinetics of block (mode of Kv1.3 block)” value [2] was “block the C-type inactivated state; also recorded: use-dependence”, the pIC50 [3] was 6.32 and the “Selectivity IC50 (Kv1.5)/IC50 (Kv1.3)” value [3] was 3.2.

With `COc1ccc2c(OCCCCOc3ccccc3)c3ccoc3nc2c1OC` [Compound 35, 7,8-Dimethoxy-4-(4-phenoxybutoxy)furo[2,3-b]quinoline] the “Kinetics of block (mode of Kv1.3 block)” value [2] was “block the C-type inactivated state; also recorded: use-dependence”.

With `Cc1cc(=O)c2c(OCCCCOc3ccccc3)c3ccoc3cc2o1` [Compound 36, 7-Methyl-4-(4-phenoxybutoxy)-5H-furo[3,2-g][1]benzopyran-5-one] the “Kinetics of block (mode of Kv1.3 block)” value [2] was “block the C-type inactivated state; also recorded: use-dependence”, the pIC50 [3] was 6.51 and the “Selectivity IC50 (Kv1.5)/IC50 (Kv1.3)” value [3] was 1.33.

With `COc1c2occc2c(OCCCCOc2ccccc2)c2c(=O)cc(C)oc12` [Compound 37, 9-Methoxy-7-methyl-4-(4-phenoxybutoxy)-5H-furo[3,2-g][1]benzopyran-5-one] the pIC50 [3] was 5.60 and the “Selectivity IC50 (Kv1.5)/IC50 (Kv1.3)” value [3] was 1.67.

With `O=c1ccc2c(OCCCCOc3ccccc3)cccc2o1` [Compound 42, 5-(4-Phenoxybutoxy)-2H-[1]benzopyran-2-one] the pIC50 [3] was 6.28 and the “Selectivity IC50 (Kv1.5)/IC50 (Kv1.3)” value [3] was 3.47.

With `Cc1cc(=O)c2c(OCCCCOc3ccccc3)c3c(cc2o1)OCO3` [Compound 56, 2-Methyl-6,7-methylendioxy-5-(4-phenoxybutoxy)-4H-[1]benzopyran-4-one] the “Times more potent on Kv1.5 than on Kv1.3” value [3] was “roughly 3 times”.

With `COc1c2ccoc2c(OCCCCOc2ccccc2)c2oc(=O)cc(C)c12` [Compound 63, 5-Methoxy-4-methyl-8-(4-phenoxybutoxy)psoralen] the “Kinetics of block (mode of Kv1.3 block)” value [2] was “open-channel blockers”, the pIC50 [3] was 6.55 and the “Times more potent on Kv1.5 than on Kv1.3” value [3] was “roughly 3 times”. For the same molecule, the “Selectivity IC50 (Kv1.5)/IC50 (Kv1.3)” value [3] was 0.88.

For `S=c1ccc2c(OCCCCOc3ccccc3)c3ccoc3cc2o1` [Compound 73, 4-(4-Phenoxybutoxy)-7H-furo[3,2-g]chromene-7-thione], the “Kinetics of block (mode of Kv1.3 block)” value [2] was “block the C-type inactivated state; also recorded: use-dependence”, the pIC50 [3] was 6.42 and the “Times more potent on Kv1.5 than on Kv1.3” value [3] was 22 times. The “Selectivity IC50 (Kv1.5)/IC50 (Kv1.3)” value [3] was 22, the “Stability in DMSO stock solutions (HPLC)” value ([4]; DMSO stock solutions) was “more than 12 months” and the “Stability in Ringer solution (HPLC)” value ([4]; Ringer solution) was “at least 24 hours”.

For `O=c1ccc2c(OCCCCOc3ccccc3)c3ccoc3cc2o1` [PAP-1, 5-(4-phenoxybutoxy)psoralen], the “Changes in liver enzymes or liver pathology” value [5] is listed as “does not lead to any changes in liver enzymes or liver pathology”, the pIC50 [1] is listed as 7.35 and the “Potency on Kv1.3 in comparison to 5-MOP” value [2] is listed as “more than 1000 fold”. The phototoxicity [6] was “not phototoxic”, the “Effect on oxazolone-induced allergic contact dermatitis” value [7] was “effectively suppresses oxazolone-induced allergic contact dermatitis” and the “in vitro or in vivo toxicity” value [8] was “does not display any in vitro or in vivo toxicity”. The “Effect on onset and incidence of type-1 diabetes” value [9] was “significantly delays the onset and reduces the incidence of type-1 diabetes”.

In the case of `COc1cc2nc3occc3c(OC)c2cc1OC` [kokusagenine, 4,6,7-trimethoxyfuro[2,3-b]quinoline], the pIC50 [10] is given as 5.00.
